pIC50: −log10 of the molar value.
Experiments:
[1] = system: HCT116 human colon tumour cells; experiment: 96 h growth inhibition assay (SRB), HCT116; format: cell-based; details: Homo sapiens, HCT-116; HCT116, 96 h
Description: The growth inhibition assay employed was based on that described previously (Kelland et al., 1993). HCT116 and HT29 human colon tumour cells (American Tissue Culture Collection) were seeded into 96-well tissue culture plates (approximately 1600–2000 cells per well) and allowed to attach for 36 hours. Eight wells were treated with a single concentration from a range of compound concentrations and incubated for 96 hours. Cells were fixed using ice cold 10% trichloroacetic acid (TCA). Plates were then washed five times with water, air dried, and stained with 0.4% sulphorhodamine B (SRB) in 1% acetic acid for 10 minutes. The SRB stain was solubilised in 10 mM Tris-HCl and the absorbance measured at 540 nm using a Titertek Multiscan MCC/340 MKII plate reader (Flow Laboratories, IEC, Basingstoke, N.H.). The absorbance values correspond to total protein content and are used as a measure of cell growth.

HSP70 in HCT116 cells = experiment: Cell-based ELISA for HSP70 expression; design: species or system human; details: for % increase in HSP70 (Normalised Europium Counts compared to DMSO controls): HCT116, 10 μM compound
Excerpt: Cell-based ELISA methods (see, e.g., Stockwell et al., 1999; Versteeg et al., 2000) offer several advantages for evaluating the pharmacodynamic effects of novel mechanism-based inhibitors and may be the method of choice for comparing inhibitors that are identified during the iterative process of lead identification and optimisation. The technique can be used to rapidly rank the effectiveness of compounds as well as to investigate the molecular mechanisms of their action. The increased sample throughput possible with ELISA means that compounds can be simultaneously studied in multiple replicates at different doses and exposure times. […] The assays are carried out directly on cells grown and treated in microtitre plates, thereby removing the necessity for preparing cell lysates. ELISA techniques can in theory be applied to any cellular protein or post-translational modification for which an antibody is available and results are at least semi-quantitative.
Chemicals are of the highest purity commercially available. • (1) Human colon tumour cell lines (e.g., HCT116 and HT29 from American Tissue Culture Collection, ATCC) grown in Dulbecco's modified Eagle's medium (DMEM) (CSSD, Institute of Cancer Research, London, UK) supplemented with […] glucose, 10% foetal bovine serum (FBS), 200 mM L-glutamine, and 5 ml non-essential amino acids in a humidified atmosphere of 5% CO2 at 37° C. • (2) 96 well Falcon clear microtitre tissue culture plates (BD Labware, Hospital Management and Supplies, Ltd., Northampton, UK). • (3) DMSO diluted in dH2O (8%). • (4) HSP90 inhibitors at required concentration dissolved in DMSO. • (5) Fixing solution (0.25% glutaraldehyde, 3% paraformaldehyde and 0.25% Triton-X 100) (all from Sigma Aldrich Ltd, Poole, UK). • (6) Blocking solution (5% dried milk (Marvel) in PBS) prepared daily. • (7) Anti HSP70 monoclonal antibody (SPA 810, Bioquote, York, UK). • (8) DELFIA® wash buffer, enhancement solution, assay buffer and Europium labelled anti-mouse IgG (1244–1330) (PerkinElmer Life Sciences, Milton Keynes, UK). • (9) BCA protein assay reagents (Perbio Science UK Ltd., Chester, UK). Method
Incubate at 37° for 30 min. • (6) Wash plates twice in PBS using an automated washer (Wellwash 5000 ten plate stacker-washer or Wellwash Ascent single plate washer, Thermo Labsystems, Basingstoke, UK). • (7) Block the plates by addition of blocking solution (100 μl) and incubate for 30 min. • (8) Add 100 μl primary antibody diluted to 0.95 μg/ml in PBS to each well and incubate plate for 1.5 h. Wash plates once with DELFIA® wash solution. • (9) Add 100 μl Europium labelled anti-mouse IgG diluted in DELFIA® assay buffer to 75 ng/ml and incubate for 1 hour. Wash plates once with DELFIA® wash solution as before. • (10) Add 100 μl DELFIA® enhancement solution to each well. • (11) Measure the fluorescence (615 nm) in Victor 2 1420 multilabel counter (Perkin Elmer Life Sciences, Milton Keynes, UK) using time-resolved measurement mode. • (12) Wash plates once with PBS and measure protein concentration by the addition of 200 μl BCA reagent to each well, shake for 1–2 min and incubate for 30 mins at 37° C. Read absorption at 570 nm. • (13) Express ELISA results by normalising to protein in the well (Eu counts (cpm) divided by OD@ 570 nm). Compare the effect of HSP90 inhibitors on HSP70 expression with DMSO treated controls. Comments • (1) Cells plated into 96 well plates are incubated in a plastic box to reduce evaporation from the outside wells. […]

CCc1cc(-c2n[nH]c(C)c2-c2ccc3c(c2)OCCO3)c(O)cc1O [CCT018159, 4-[4-(2,3-Dihydro-benzo[1,4]dioxin-6-yl)-5-methyl-1H-pyrazol-3-yl]-6-ethyl-benzene-1,3-diol]
pIC50 [1]: 5.35 | % increase in HSP70 (Normalised Europium Counts compared to DMSO controls) (HSP70 in HCT116 cells; (48 h)): 278% | % increase in HSP70 (Normalised Europium Counts compared to DMSO controls) (HSP70 in HCT116 cells; (time not given)): 158% | HSP70 induction (HSP70 in HCT116 cells; HCT116, 10 μM, 48 h): up to 2.8 fold

Cc1[nH]nc(-c2ccc(O)cc2O)c1-c1ccc2c(c1)OCCO2 [CCT018157]
pIC50 [1]: 4.59 | % increase in HSP70 (Normalised Europium Counts compared to DMSO controls) (HSP70 in HCT116 cells; (48 h)): 103% | % increase in HSP70 (Normalised Europium Counts compared to DMSO controls) (HSP70 in HCT116 cells; (time not given)): 105%
